The subject of this experiment is L1210 leukemia ip in BDF1 mice, survival T/C. The experiment in a line: NCI In Vivo Anticancer Drug Screen. Data for tumor model L1210 Leukemia (intraperitoneal) in B6D2F1 (BDF1) mice. To be noted: endpoint: mean survival time, higher = longer survival. A digest of the protocol: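 Survival endpoint. Drug-treated group vs vehicle group, expressed as T divided by C. Tumor passaged by transplantation.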

Where [1] appears, read: dose: 25.0 mg/kg/injection, schedule: Q04DX003 (ip), vehicle: Klucel (hydroxypropylcellulose) (HPC).
The mark [2] stands for this setting: dose: 50.0 mg/kg/injection, schedule: Q04DX003 (ip), vehicle: Klucel (hydroxypropylcellulose) (HPC).
The mark [3] stands for this setting: dose: 100.0 mg/kg/injection, schedule: Q04DX003 (ip), vehicle: saline with Tween-80.
Where [4] appears, read: dose: 200.0 mg/kg/injection, schedule: Q04DX003 (ip), vehicle: saline with Tween-80.
The mark [5] stands for this setting: dose: 400.0 mg/kg/injection, schedule: Q04DX003 (ip), vehicle: saline with Tween-80.
[6] abbreviates: dose: 100.0 mg/kg/injection, schedule: Q04DX003 (ip), vehicle: saline.
[7] abbreviates: dose: 200.0 mg/kg/injection, schedule: Q04DX003 (ip), vehicle: saline.
[8] abbreviates: dose: 100.0 mg/kg/injection, schedule: Q01DX009 (ip), vehicle: Klucel (hydroxypropylcellulose) (HPC).
The mark [9] stands for this setting: dose: 200.0 mg/kg/injection, schedule: Q01DX009 (ip), vehicle: Klucel (hydroxypropylcellulose) (HPC).

Where “and” joins values, the source holds several entries; their conditions need not be identical. Equal entries are not always repeated. Toxic doses and inconclusive results are not listed.

Consider `C=C(Cl)CSCCCS`, for which the T/C (dose: 100.0 mg/kg/injection, schedule: Q01DX009 (ip), vehicle: acetone) was 108 % of control; the T/C (dose: 130.0 mg/kg/injection, schedule: Q01DX009 (ip), vehicle: saline) is 116 % of control; the T/C (dose: 200.0 mg/kg/injection, schedule: Q01DX009 (ip), vehicle: acetone) is 123 % of control; the T/C (dose: 200.0 mg/kg/injection, schedule: Q01DX009 (ip), vehicle: saline) is 120 % of control; the T/C (dose: 300.0 mg/kg/injection, schedule: Q01DX009 (ip), vehicle: saline) is 120 % of control.
`O=C(c1ccccc1)C1CSSC1c1ccccc1` (configuration not stated): the T/C (dose: 12.5 mg/kg/injection, schedule: Q04DX003 (ip), vehicle: Klucel (hydroxypropylcellulose) (HPC)) was 100 % of control; the T/C under setting [1] is 100 % of control; the T/C under setting [2] is 97 % of control.
Turning to `O=c1cc(C(F)(F)F)[nH]c2ccc(F)cc12`, the T/C runs as follows: (dose: 5.0 mg/kg/injection, schedule: Q04DX003 (ip), vehicle: saline with Tween-80) 102 % of control; (dose: 10.0 mg/kg/injection, schedule: Q04DX003 (ip), vehicle: saline with Tween-80) 90 % of control; (dose: 20.0 mg/kg/injection, schedule: Q04DX003 (ip), vehicle: saline with Tween-80) 97 % of control.
As for `S=c1[nH]ccc2n[nH]nc12`, the T/C by setting is: under setting [3], 101 % of control; under setting [4], 98 % of control; under setting [5], 101 % of control.
Turning to `O=C(Nc1ccccc1C(F)(F)F)OCCOc1ccccc1`, the T/C (dose: 100.0 mg/kg/injection, schedule: Q01DX009 (ip), vehicle: gum acacia) was 92 % of control; the T/C (dose: 200.0 mg/kg/injection, schedule: Q01DX009 (ip), vehicle: gum acacia) is 88 % of control; the T/C (dose: 400.0 mg/kg/injection, schedule: Q01DX009 (ip), vehicle: gum acacia) was 93 % of control.
For the molecule `Cl/C=C(\Cl)CCl`, the T/C was 100 % of control (dose: 100.0 mg/kg/injection, schedule: Q01DX009 (ip), vehicle: saline with Tween-80); 97 % of control under setting [6]; 102 % of control under setting [7]; 105 % of control (dose: 400.0 mg/kg/injection, schedule: Q04DX003 (ip), vehicle: saline).
Take `Cc1ccc(C)c(NC(=O)OC/C=C/c2ccccc2)c1`: the T/C was 88 % of control under setting [8]; 86 % of control under setting [9]; 86 % of control (dose: 400.0 mg/kg/injection, schedule: Q01DX009 (ip), vehicle: Klucel (hydroxypropylcellulose) (HPC)).
Turning to `O=C(CCl)OC(=O)C(Cl)(Cl)Cl`, the T/C under setting [6] was 102 % of control and the T/C under setting [7] is 96 % of control.
Consider `CCOC(=O)C1CCc2c(ccc3ccccc23)N1CCC#N` (configuration not stated), for which the T/C runs as follows: (dose: 100.0 mg/kg/injection, schedule: Q01DX009 (ip), vehicle: carboxymethylcellulose (CMC)) 95 % of control and 101 % of control; (dose: 100.0 mg/kg/injection, schedule: Q04DX002 (ip), vehicle: carboxymethylcellulose (CMC)) 97 % of control; (dose: 100.0 mg/kg/injection, schedule: Q04DX003 (ip), vehicle: carboxymethylcellulose (CMC)) 105 % of control; (dose: 200.0 mg/kg/injection, schedule: Q01DX009 (ip), vehicle: carboxymethylcellulose (CMC)) 98 % of control and 88 % of control; (dose: 200.0 mg/kg/injection, schedule: Q04DX002 (ip), vehicle: carboxymethylcellulose (CMC)) 91 % of control; (dose: 200.0 mg/kg/injection, schedule: Q04DX003 (ip), vehicle: carboxymethylcellulose (CMC)) 101 % of control. Moreover, the T/C (dose: 400.0 mg/kg/injection, schedule: Q01DX009 (ip), vehicle: carboxymethylcellulose (CMC)) is 97 % of control and 107 % of control; the T/C (dose: 400.0 mg/kg/injection, schedule: Q04DX002 (ip), vehicle: carboxymethylcellulose (CMC)) was 97 % of control; the T/C (dose: 400.0 mg/kg/injection, schedule: Q04DX003 (ip), vehicle: carboxymethylcellulose (CMC)) is 110 % of control.
Turning to `COc1ccccc1NC(=O)NCCN1CCCC1`, the T/C by setting is: under setting [8], 98 % of control; under setting [9], 98 % of control.
As to `CCN=C1N[N+]2=CCCCC2S1` (configuration not stated), the T/C reads like this: (dose: 50.0 mg/kg/injection, schedule: Q04DX003 (ip), vehicle: saline) 103 % of control; under setting [6], 109 % of control.
In the case of `COc1cc(C=Nc2cc(Br)cc(Br)c2)ccc1N(CCCl)CCCl`, the T/C was 113 % of control (dose: 1.31 mg/kg/injection, schedule: Q01DX009 (ip), vehicle: other); 104 % of control (dose: 2.62 mg/kg/injection, schedule: Q01DX009 (ip), vehicle: other); 106 % of control (dose: 12.5 mg/kg/injection, schedule: Q01DX001 (ip), vehicle: other); 120 % of control (dose: 25.0 mg/kg/injection, schedule: Q01DX001 (ip), vehicle: other); 124 % of control (dose: 50.0 mg/kg/injection, schedule: Q01DX009 (ip), vehicle: other); 123 % of control (dose: 118.0 mg/kg/injection, schedule: Q01DX001 (ip), vehicle: carboxymethylcellulose (CMC)). Also, the T/C reads like this: (dose: 177.0 mg/kg/injection, schedule: Q01DX001 (ip), vehicle: carboxymethylcellulose (CMC)) 94 % of control and 108 % of control; (dose: 200.0 mg/kg/injection, schedule: Q01DX001 (ip), vehicle: carboxymethylcellulose (CMC)) 124 % of control; (dose: 266.0 mg/kg/injection, schedule: Q01DX001 (ip), vehicle: carboxymethylcellulose (CMC)) 88 % of control; (dose: 400.0 mg/kg/injection, schedule: Q01DX001 (ip), vehicle: carboxymethylcellulose (CMC)) 179 % of control.
In the case of `COc1ccccc1N1CCN(CCCC(=O)c2ccc(F)cc2)CC1`, the T/C by setting is: (dose: 12.5 mg/kg/injection, schedule: Q01DX009 (ip), vehicle: Klucel (hydroxypropylcellulose) (HPC)) 96 % of control; (dose: 25.0 mg/kg/injection, schedule: Q01DX009 (ip), vehicle: Klucel (hydroxypropylcellulose) (HPC)) 105 % of control; under setting [1], 108 % of control; (dose: 50.0 mg/kg/injection, schedule: Q01DX009 (ip), vehicle: Klucel (hydroxypropylcellulose) (HPC)) 105 % of control; under setting [2], 111 % of control; under setting [8], 122 % of control. The T/C was 116 % of control (dose: 100.0 mg/kg/injection, schedule: Q04DX003 (ip), vehicle: Klucel (hydroxypropylcellulose) (HPC)) and 111 % of control (dose: 200.0 mg/kg/injection, schedule: Q04DX003 (ip), vehicle: Klucel (hydroxypropylcellulose) (HPC)).
As to `O=C(NCCCCCCCCCNC(=O)Nc1ccc(C2=NCCN2)cc1)Nc1ccc(C2=NCCN2)cc1`, the T/C (dose: 62.0 mg/kg/injection, schedule: Q01DX Z (ip), vehicle: carboxymethylcellulose (CMC)) was 102 % of control and the T/C (dose: 125.0 mg/kg/injection, schedule: Q01DX Z (ip), vehicle: carboxymethylcellulose (CMC)) was 100 % of control.
`CC(=O)Nc1ccc(OCCOC(=O)Nc2ccc(C)c([N+](=O)[O-])c2)cc1`: the T/C (dose: 50.0 mg/kg/injection, schedule: Q01DX009 (ip), vehicle: saline with Tween-80) was 87 % of control and the T/C (dose: 200.0 mg/kg/injection, schedule: Q01DX009 (ip), vehicle: saline with Tween-80) is 87 % of control.
Turning to `CCC1(Sc2ncnc3c2ncn3C2OC(CO)C(O)C2O)C(=O)NC(=O)NC1=O` (configuration not stated), the T/C is, setting by setting: (dose: 100.0 mg/kg/injection, schedule: Q01DX001 (ip), vehicle: saline) 114 % of control; (dose: 200.0 mg/kg/injection, schedule: Q01DX001 (ip), vehicle: saline) 111 % of control; (dose: 400.0 mg/kg/injection, schedule: Q01DX001 (ip), vehicle: saline) 120 % of control.
Regarding `Cc1ccc(C)c(N2CCN(c3ccncc3N)CC2)c1`, the T/C runs as follows: (dose: 75.0 mg/kg/injection, schedule: Q01DX001 (ip), vehicle: saline with Tween-80) 98 % of control; (dose: 75.0 mg/kg/injection, schedule: Q01DX009 (ip), vehicle: saline with Tween-80) 95 % of control; (dose: 150.0 mg/kg/injection, schedule: Q01DX001 (ip), vehicle: saline with Tween-80) 93 % of control; (dose: 150.0 mg/kg/injection, schedule: Q01DX009 (ip), vehicle: saline with Tween-80) 102 % of control; (dose: 300.0 mg/kg/injection, schedule: Q01DX001 (ip), vehicle: saline with Tween-80) 101 % of control.
With `CC(C(O)c1ccccc1)[N+](=O)[O-]` (configuration not stated), the T/C runs as follows: under setting [3], 100 % of control; under setting [4], 95 % of control; under setting [5], 101 % of control.

The record behind these values is PubChem BioAssay AID248 (DTP/NCI, 2004).
